The test system of series [1] is acute and chronic pain. The following applies: in vivo; cited from earlier work.
In series [2] the target is NR2B-containing NMDA receptors (Homo sapiens, UniProt Q05586+Q13224). The note with it: voltage-independent and non-competitive manner; cited from earlier work.
The subject of series [3] is alpha-1 adrenergic receptor. The note with it: cited from earlier work.
The subject of series [4] is thermal stimulation of the lesioned paw. Briefly: effect of agents on thermal stimulation of the lesioned paw. The series is classed as in vivo.
The subject of series [5] is alpha1-adrenoceptor. Briefly: hypotension liability (alpha1-adrenoceptor antagonism).
The test system of series [6] is neuropathic pain. Briefly: model of neuropathic pain (Bennett model). The series is classed as in vivo. From the text: Evidence of the incorrect conclusion reached by Chenard et al., 1991, supra, is provided by experiments conducted in a Bennett model (Bennett et al, 1988, Pain 33(1):87-107). The results are shown in the accompanying drawing.

“Also recorded” adds a separate entry of the source.

Sequence of NR2B-containing NMDA receptors (Q13224 27-1484, other chains not shown): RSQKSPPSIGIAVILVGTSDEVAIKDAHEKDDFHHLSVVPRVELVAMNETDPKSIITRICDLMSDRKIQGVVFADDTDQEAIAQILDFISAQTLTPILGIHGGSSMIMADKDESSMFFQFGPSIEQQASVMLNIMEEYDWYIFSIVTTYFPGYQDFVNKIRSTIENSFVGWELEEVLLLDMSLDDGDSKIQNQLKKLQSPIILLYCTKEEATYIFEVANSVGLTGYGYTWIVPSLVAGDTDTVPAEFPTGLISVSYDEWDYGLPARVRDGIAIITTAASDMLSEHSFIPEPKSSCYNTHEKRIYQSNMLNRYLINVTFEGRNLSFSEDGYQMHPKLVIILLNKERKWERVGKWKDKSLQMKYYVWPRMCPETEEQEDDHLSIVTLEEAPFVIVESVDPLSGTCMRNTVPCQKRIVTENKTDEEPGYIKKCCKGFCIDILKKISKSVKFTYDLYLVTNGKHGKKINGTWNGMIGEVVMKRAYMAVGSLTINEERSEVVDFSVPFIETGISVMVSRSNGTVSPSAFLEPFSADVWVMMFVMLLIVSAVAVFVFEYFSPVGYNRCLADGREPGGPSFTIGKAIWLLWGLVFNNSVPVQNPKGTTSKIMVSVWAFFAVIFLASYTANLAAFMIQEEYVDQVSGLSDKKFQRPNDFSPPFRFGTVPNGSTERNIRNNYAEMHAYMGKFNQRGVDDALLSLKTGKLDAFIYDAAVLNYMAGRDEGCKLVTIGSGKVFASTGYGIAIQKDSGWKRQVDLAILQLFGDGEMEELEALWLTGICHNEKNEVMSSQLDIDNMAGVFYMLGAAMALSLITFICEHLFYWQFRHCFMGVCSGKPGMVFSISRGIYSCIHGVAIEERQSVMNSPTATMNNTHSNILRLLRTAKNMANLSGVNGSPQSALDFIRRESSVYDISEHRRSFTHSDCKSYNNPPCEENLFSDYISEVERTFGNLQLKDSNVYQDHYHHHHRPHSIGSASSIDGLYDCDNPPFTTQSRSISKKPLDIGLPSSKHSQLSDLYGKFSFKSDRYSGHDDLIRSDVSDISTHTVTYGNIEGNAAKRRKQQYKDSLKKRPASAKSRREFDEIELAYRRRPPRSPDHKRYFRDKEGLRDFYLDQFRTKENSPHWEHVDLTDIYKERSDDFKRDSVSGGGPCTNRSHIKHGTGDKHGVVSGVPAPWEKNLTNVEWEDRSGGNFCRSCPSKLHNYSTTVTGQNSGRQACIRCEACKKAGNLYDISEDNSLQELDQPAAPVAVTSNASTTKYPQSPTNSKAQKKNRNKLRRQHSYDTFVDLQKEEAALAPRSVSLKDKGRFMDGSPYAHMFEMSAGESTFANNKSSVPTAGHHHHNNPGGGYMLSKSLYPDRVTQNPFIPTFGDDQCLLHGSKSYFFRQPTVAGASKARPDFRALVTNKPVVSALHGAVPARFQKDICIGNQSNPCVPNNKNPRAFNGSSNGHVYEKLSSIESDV

With `CC(C(O)c1ccc(O)cc1)N1CCC(Cc2ccccc2)CC1` (stereo not shown) [Ifenprodil, 2-(4-benzylpiperidino)-1-(4-hydroxyphenyl)-1-propanol], in series [1], the “anti-nociceptive activity in animal models of acute and chronic pain” value is recorded as “exhibits anti-nociceptive activity”. Also, in series [2], the “block of NR2B-containing NMDA receptors” value was “selectively blocks NR2B-containing NMDA receptors”. Besides, the “alpha-1 adrenergic receptor binding” value in series [3] is listed as “potent alpha-1 adrenergic receptor binding properties”. Also, in series [4] (ifenprodil 3, 10 and 30 mg/kg ip, gabapentin 30 mg/kg ip, morphine 8 mg/kg ip), the “effectiveness on thermal stimulation of the lesioned paw relative to comparators” value is recorded as “more effective than gabapentin; also recorded: almost as effective as morphine”.
As to `CC(C(O)c1ccc(O)cc1)N1CCC(Cc2ccccc2)CC1` (single isomer, unassigned; (-)) [(−)-threo-ifenprodil], the “hypotension liability (alpha1-adrenoceptor antagonism) versus the other enantiomers” value in series [5] is “lower hypotension liability”. Moreover, the “efficacy versus the other enantiomers in a model of neuropathic pain” value in series [6] is “does not produce a significant increase in efficacy over the other enantiomers”. Besides, the “effectiveness on thermal stimulation of the lesioned paw, comparison of enantiomers” value in series [4] (3 mg/kg ip) is on record as “the most effective enantiomer”.
